The term IC50 denotes the concentration needed to halve the response being measured. Read a low IC50 as inhibition by little substance. The term EC50 denotes the concentration giving half of the maximal effect.

These results are taken from patent US20100324036A1, “SUBSTITUTED IMIDAZOPYRIDINE DERIVATIVES AS MELANOCORTIN-4 RECEPTOR ANTAGONISTS” (SANTHERA PHARMACEUTICALS (SCHWEIZ) AG, priority 2007, published 2010).

A value given as a limit tells only on which side of the number the result lay.

Experiment [1] addresses T1, hMC-4R (Homo sapiens, UniProt P32245). The experiment is described as follows: Membrane binding assay, competition with fluorescence labeled NDP-alpha-MSH (fluorescence polarization). Also on record: expressed in transfected cells; host or cells: HEK293 cells (membrane preparations). Conditions: HEK293 cell membrane preparations. A general note: Polarisation of emitted light reports the rotation of a fluorescent probe.

The target in experiment [2] is T1, hMC-4R. In words: Functional assay, cAMP formation in HEK293 membrane preparations (fluorescence polarization).

T1 sequence (P32245 whole entry): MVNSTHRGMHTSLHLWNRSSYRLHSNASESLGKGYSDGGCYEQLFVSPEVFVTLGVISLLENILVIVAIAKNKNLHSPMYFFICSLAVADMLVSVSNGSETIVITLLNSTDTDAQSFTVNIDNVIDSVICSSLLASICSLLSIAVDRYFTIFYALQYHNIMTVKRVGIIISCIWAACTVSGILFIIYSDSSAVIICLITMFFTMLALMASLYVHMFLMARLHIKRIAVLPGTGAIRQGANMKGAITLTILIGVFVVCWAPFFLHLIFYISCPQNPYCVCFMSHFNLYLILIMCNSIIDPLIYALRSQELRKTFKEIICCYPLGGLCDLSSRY

`CCNC(=O)c1nc2ccc(C(=O)N(CCC(C)C)CCC(C)C)cn2c1CCCN1CCCC1` [Example 4] showed a half-inhibitory concentration (IC50) on hMC-4R [1] of 100 to 1000 nM.

Consider `CC(C)CCN(CCC(C)C)C(=O)c1ccc2nc(C(=O)N3CCN(C)CC3)c(CCCN3CCCC3)n2c1` [Example 29], for which, at hMC-4R [1], the IC50 was 100 to 1000 nM.

`CC(C)CCN(CCC(C)C)C(=O)c1ccc2nc(CCCN)c(CCCN3CCCC3)n2c1` [Example 28] had an IC50 on hMC-4R [1] of under 100 nM.

As to `CC(C)CCN(CCC(C)C)C(=O)c1ccc2nc(CNc3ccc4c(c3)OCO4)c(CCCN3CCCC3)n2c1` [Example 22], the IC50 on hMC-4R [1] was under 100 nM.

On to `COCc1noc(-c2nc3ccc(C(=O)N(CCC(C)C)CCC(C)C)cn3c2CCCN2CCCC2)n1` [Example 9], for which the IC50 on hMC-4R [1] was under 100 nM. On hMC-4R [2], the EC50 lay within 100 to 1000 nM.

On hMC-4R [1], `CCOC(=O)c1nc2ccc(C(=O)N(CCC(C)C)CCC(C)C)cn2c1CCCN(C)C` [Example 15] gave an IC50 of 100 to 1000 nM.

For the compound `CC(C)CCN(CCC(C)C)C(=O)c1ccc2nc(C3CC3)c(CCCN3CCCC3)n2c1` [Example 6], the half-inhibitory concentration (IC50) on hMC-4R [1] was 100 to 1000 nM.

On to `CC(C)CCN(CCC(C)C)C(=O)c1ccc2nc(C#N)c(CCCN3CCCC3)n2c1` [Example 8], for which the IC50 on hMC-4R [1] is over 1000 nM. This compound displayed a 50% effective concentration (EC50) on hMC-4R [2] of 100 to 1000 nM.

At hMC-4R [1], `CC(C)CCN(CCC(C)C)C(=O)c1ccc2nc(-c3nc(C(C)(C)O)no3)c(CCCN(C)C)n2c1` [Example 18] registered an IC50 of 100 to 1000 nM. At hMC-4R [2], the 50% effective concentration (EC50) is 100 to 1000 nM.

`CC(C)CCN(CCC(C)C)C(=O)c1ccc2nc(-c3n[nH]c(=O)n3C)c(CCCN3CCCC3)n2c1` [Example 13] had an IC50 on hMC-4R [1] of 100 to 1000 nM.

Consider `Cc1noc(-c2nc3ccc(C(=O)N(CCC(C)C)CCC(C)C)cn3c2CCCN(C)C)n1` [Example 17], for which the IC50 at hMC-4R [1] lay within 100 to 1000 nM.

On to `CC(C)CCN(CCC(C)C)C(=O)c1ccc2nc(-c3nc(C4CC4)no3)c(CCCN3CCCC3)n2c1` [Example 12], for which the IC50 on hMC-4R [1] was under 100 nM.

As for `CC(C)CCN(CCC(C)C)C(=O)c1ccc2nc(N(C)c3ccccn3)c(CCCN3CCCC3)n2c1` [Example 21], the half-inhibitory concentration (IC50) on hMC-4R [1] was in the range of 100 to 1000 nM.

`CC(C)CCN(CCC(C)C)C(=O)c1ccc2nc(CCCNC(=O)OC(C)(C)C)c(CCCN3CCCC3)n2c1` [Example 26] showed an IC50 on hMC-4R [1] of under 100 nM.

Consider `COc1cccc(N(C)c2nc3ccc(C(=O)N(CCC(C)C)CCC(C)C)cn3c2CCCN2CCCC2)c1` [Example 23], for which the IC50 at hMC-4R [1] fell in the range of 100 to 1000 nM.

For the compound `CC(C)CCN(CCC(C)C)C(=O)c1ccc2nc(-c3nc(C(C)(C)O)no3)c(CCCN3CCCC3)n2c1` [Example 11], the half-inhibitory concentration (IC50) on hMC-4R [1] was in the range of 100 to 1000 nM.

As to `CC(C)CCN(CCC(C)C)C(=O)c1ccc2nc(C(=O)OC(C)C)c(CCCN3CCCC3)n2c1` [Example 7], the IC50 on hMC-4R [1] fell in the range of 100 to 1000 nM. On hMC-4R [2], this compound gave an EC50 of 100 to 1000 nM.

`CC(C)CCN(CCC(C)C)C(=O)c1ccc2nc(-c3ccc4nccn4c3)c(CCCN3CCCC3)n2c1` [Example 24]: at hMC-4R [1], the 50% inhibitory concentration (IC50) is under 100 nM.

In turn, `CNC(=O)c1nc2ccc(C(=O)N(CCC(C)C)CCC(C)C)cn2c1CCCN1CCCC1` [Example 3] gave a 50% inhibitory concentration (IC50) on hMC-4R [1] of 100 to 1000 nM.

Take `Cc1noc(-c2nc3ccc(C(=O)N(CCC(C)C)CCC(C)C)cn3c2CCCN2CCCC2)n1` [Example 10]: the IC50 on hMC-4R [1] is under 100 nM. Besides, the EC50 on hMC-4R [2] was under 100 nM.

The compound `COCCOC(=O)c1nc2ccc(C(=O)N(CCC(C)C)CCC(C)C)cn2c1CCCN1CCCC1` [Example 19] registered an IC50 on hMC-4R [1] of under 100 nM.

`CC(C)CCN(CCC(C)C)C(=O)c1ccc2nc(CO)c(CCCN3CCCC3)n2c1` [Example 5] returned an IC50 at hMC-4R [1] of 100 to 1000 nM.

On hMC-4R [1], `CC(C)CCN(CCC(C)C)C(=O)c1ccc2nc(CCCN(C)C)c(CCCN3CCCC3)n2c1` [Example 27] returned an IC50 of under 100 nM. The compound also returned an EC50 on hMC-4R [2] of 100 to 1000 nM.

For the compound `CC(C)CCN(CCC(C)C)C(=O)c1ccc2nc(C(=O)OCC(C)C)c(CCCN3CCCC3)n2c1` [Example 20], the concentration for half-maximal inhibition (IC50) at hMC-4R [1] was under 100 nM.

`COCc1noc(-c2nc3ccc(C(=O)N(CCC(C)C)CCC(C)C)cn3c2CCCN(C)C)n1` [Example 16]: the IC50 at hMC-4R [1] fell in the range of 100 to 1000 nM.

Consider `CC(C)CCN(CCC(C)C)C(=O)c1ccc2nc(C(=O)N3CCCC3)c(CCCN3CCCC3)n2c1` [Example 2], for which, at hMC-4R [1], the IC50 lay in the range of 100 to 1000 nM.

`CCOC(=O)CCc1nc2ccc(C(=O)N(CCC(C)C)CCC(C)C)cn2c1CCCN(C)C` [Example 14] had an IC50 on hMC-4R [1] of 100 to 1000 nM.

On to `CCOC(=O)c1nc2ccc(C(=O)N(CCC(C)C)CCC(C)C)cn2c1CCCN1CCCC1` [Example 1], for which the half-maximal inhibitory concentration (IC50) on hMC-4R [1] is under 100 nM.
